Laboratory results as given in patent US12643886B2 (Ontario Institute for Cancer Research (OICR), priority 2021, dated 2026).

Experiments:
Assay type in all cases: biochemical
[1] = molecular target: T1, Aurora A (Homo sapiens, UniProt O14965); test: Counter-screen against Aurora A; conditions: read-out: AUR-A (IC50)
T1 sequence (O14965 1-403): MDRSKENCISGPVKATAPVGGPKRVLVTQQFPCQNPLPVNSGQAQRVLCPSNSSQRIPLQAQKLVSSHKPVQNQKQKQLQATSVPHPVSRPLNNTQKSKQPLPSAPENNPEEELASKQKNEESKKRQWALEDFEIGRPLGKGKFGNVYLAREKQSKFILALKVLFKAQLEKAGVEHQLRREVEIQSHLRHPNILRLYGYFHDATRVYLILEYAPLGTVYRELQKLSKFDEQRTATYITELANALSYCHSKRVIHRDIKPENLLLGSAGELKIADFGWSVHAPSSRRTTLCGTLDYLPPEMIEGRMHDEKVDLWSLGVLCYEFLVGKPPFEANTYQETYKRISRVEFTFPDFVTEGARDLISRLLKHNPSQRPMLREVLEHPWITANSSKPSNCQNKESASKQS
Procedure: (§1) To identify small molecule NUAK inhibitors, a biochemical NUAK2 enzymatic assay were outsourced to Eurofins. This assay was done radiometrically using full-length, recombinant enzyme. NUAK2 (h) was incubated with 8 mM MOPS pH 7.0, 0.2 mM EDTA, 300 μM […], 10 mM magnesium acetate and […] (specific activity and concentration as required). The reaction was initiated by the addition of the Mg/ATP mix. After incubation for 40 minutes at room temperature, the reaction was stopped by the addition of phosphoric acid to a concentration of 0.5%. 10 μL of the reaction was then spotted onto a P30 filtermat and washed four times for 4 minutes in 0.425% phosphoric acid and once in methanol prior to drying and scintillation counting. Compounds were routinely counter-screened against Aurora A and NUAK1. The results are shown in Table 1 where IC50's are reported in the following ranges: A: 0.1-10 nM; B: 11-100 nM; C: 101-1000 nM; D: >1000 nM for the compounds of Formula (I)

[2] = molecular target: T2, NUAK2 (h) (Homo sapiens, UniProt Q9H093); test: NUAK2 enzymatic assay (radiometric, Eurofins); conditions: full-length recombinant enzyme
T2 construct: This assay was done radiometrically using full-length, recombinant enzyme; purchased Eurofins
T2 sequence (Q9H093 1-628): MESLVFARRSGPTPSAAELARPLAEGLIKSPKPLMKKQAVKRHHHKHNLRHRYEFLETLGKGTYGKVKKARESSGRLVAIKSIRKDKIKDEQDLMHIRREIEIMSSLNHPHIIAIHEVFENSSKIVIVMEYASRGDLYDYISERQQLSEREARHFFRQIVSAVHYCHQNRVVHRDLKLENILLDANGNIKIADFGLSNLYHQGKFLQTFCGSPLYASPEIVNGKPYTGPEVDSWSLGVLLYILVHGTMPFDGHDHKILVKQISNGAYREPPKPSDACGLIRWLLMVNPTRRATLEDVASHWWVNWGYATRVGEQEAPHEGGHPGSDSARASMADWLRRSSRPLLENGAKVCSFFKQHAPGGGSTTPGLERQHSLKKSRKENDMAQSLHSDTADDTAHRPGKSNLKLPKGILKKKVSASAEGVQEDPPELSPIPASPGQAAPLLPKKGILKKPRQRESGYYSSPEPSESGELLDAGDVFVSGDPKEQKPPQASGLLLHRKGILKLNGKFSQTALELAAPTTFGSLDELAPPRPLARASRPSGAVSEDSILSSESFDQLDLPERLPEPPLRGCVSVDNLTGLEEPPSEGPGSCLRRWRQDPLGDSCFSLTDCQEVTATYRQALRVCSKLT
Procedure: as §1

[3] = molecular target: T3, NUAK1 (Homo sapiens, UniProt O60285); test: Counter-screen against NUAK1
T3 sequence (O60285 1-661): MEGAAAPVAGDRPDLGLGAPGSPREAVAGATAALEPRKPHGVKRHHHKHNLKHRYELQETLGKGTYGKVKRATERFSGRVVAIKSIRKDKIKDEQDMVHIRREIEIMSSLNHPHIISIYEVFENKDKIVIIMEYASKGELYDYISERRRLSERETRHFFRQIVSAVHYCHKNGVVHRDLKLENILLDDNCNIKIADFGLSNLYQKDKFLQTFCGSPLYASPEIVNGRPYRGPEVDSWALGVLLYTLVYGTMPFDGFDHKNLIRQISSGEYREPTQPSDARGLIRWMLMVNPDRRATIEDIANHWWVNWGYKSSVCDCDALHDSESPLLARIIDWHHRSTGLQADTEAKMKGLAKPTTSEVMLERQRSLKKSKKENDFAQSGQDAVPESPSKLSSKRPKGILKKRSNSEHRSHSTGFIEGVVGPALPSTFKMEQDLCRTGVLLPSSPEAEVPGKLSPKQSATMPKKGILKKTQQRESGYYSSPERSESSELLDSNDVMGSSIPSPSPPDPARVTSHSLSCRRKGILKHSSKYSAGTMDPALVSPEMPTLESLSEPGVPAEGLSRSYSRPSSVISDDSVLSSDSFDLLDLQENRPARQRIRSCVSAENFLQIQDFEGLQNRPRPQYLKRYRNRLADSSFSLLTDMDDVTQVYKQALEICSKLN
Procedure: as §1

Row | Compound | IC50 [1] | IC50 [2] | IC50 [3]
1 | COc1cc2c(cc1Nc1ncc(Cl)c(Nc3cccc4c3C(=O)NC4)n1)CCN(C(C)C)C2 [Compound I-18, 7-((5-chloro-2-((2-isopropyl-7-methoxy-1,2,3,4-tetrahydroisoquinolin-6-yl)amino)pyrimidin-4-yl)amino)isoindolin-1-one] | > 1000 nM | 0.1 to 10 nM | 11 to 100 nM
2 | COc1cc2c(cc1Nc1ncc(Cl)c(Nc3cccc4c3C(=O)NC4)n1)CCN(CCC(F)(F)F)C2 [Compound I-19, 7-((5-chloro-2-((7-methoxy-2-(3,3,3-trifluoropropyl)-1,2,3,4-tetrahydroisoquinolin-6-yl)amino)pyrimidin-4-yl)amino)isoindolin-1-one] | > 1000 nM | 11 to 100 nM | 101 to 1000 nM
3 | CN1CCN(C2CCN(c3ccc(Nc4ncc(C(F)(F)F)c(Nc5cccc6c5C(=O)NC6)n4)c(OC(F)F)c3)CC2)CC1 [Compound I-20, 7-((2-((2-(difluoromethoxy)-4-(4-(4-methylpiperazin-1-yl)piperidin-1-yl)phenyl)amino)-5-(trifluoromethyl)pyrimidin-4-yl)amino)isoindolin-1-one] | 101 to 1000 nM | 0.1 to 10 nM | 11 to 100 nM
4 | COc1cc2c(cc1Nc1ncc(C(F)(F)F)c(Nc3cccc4c3C(=O)NC4)n1)CN(C)CC2 [Compound I-21, 7-((2-((6-methoxy-2-methyl-1,2,3,4-tetrahydroisoquinolin-7-yl)amino)-5-(trifluoromethyl)pyrimidin-4-yl)amino)isoindolin-1-one] | 101 to 1000 nM | 11 to 100 nM | 11 to 100 nM
5 | COc1cc2c(cc1Nc1ncc(C(F)(F)F)c(Nc3cccc4c3C(=O)NC4)n1)CCN(C)C2 [Compound I-22, 7-((2-((7-methoxy-2-methyl-1,2,3,4-tetrahydroisoquinolin-6-yl)amino)-5-(trifluoromethyl)pyrimidin-4-yl)amino)isoindolin-1-one] | 101 to 1000 nM | 0.1 to 10 nM | 11 to 100 nM
6 | COc1cc2c(cc1Nc1ncc(Cl)c(Nc3cccc4c3C(=O)NC4)n1)CNCC2 [Compound I-23, 7-((5-chloro-2-((6-methoxy-1,2,3,4-tetrahydroisoquinolin-7-yl)amino)pyrimidin-4-yl)amino)isoindolin-1-one] | 101 to 1000 nM | 11 to 100 nM | 11 to 100 nM
7 | O=C1NCc2cccc(Nc3nc(Nc4ccc(N5CCNCC5)cc4OC(F)F)ncc3Cl)c21 [Compound I-24, 7-((5-chloro-2-((2-(difluoromethoxy)-4-(piperazin-1-yl)phenyl)amino)pyrimidin-4-yl)amino)isoindolin-1-one] | > 1000 nM | 0.1 to 10 nM | 11 to 100 nM
8 | COc1cc2c(cc1Nc1ncc(Cl)c(Nc3cccc4c3C(=O)NC4)n1)CNCC21CC1 [Compound I-25, 7-((5-chloro-2-((6′-methoxy-2′,3′-dihydro-1′H-spiro[cyclopropane-1,4′-isoquinolin]-7′-yl)amino)pyrimidin-4-yl)amino)isoindolin-1-one] | > 1000 nM | 11 to 100 nM | 11 to 100 nM
9 | COc1cc2c(cc1Nc1ncc(Cl)c(Nc3cccc4c3C(=O)NC4)n1)CCNCC2 [Compound I-26, 7-((5-chloro-2-((8-methoxy-2,3,4,5-tetrahydro-1H-benzo[d]azepin-7-yl)amino)pyrimidin-4-yl)amino)isoindolin-1-one] | > 1000 nM | 11 to 100 nM | 11 to 100 nM
10 | CN1C[C@@H]2CN(c3ccc(Nc4ncc(Cl)c(Nc5cccc6c5C(=O)NC6)n4)c(OC(F)F)c3)C[C@@H]2C1 [Compound I-28, 7-((5-chloro-2-((2-(difluoromethoxy)-4-((3aR,6aS)-5-methylhexahydropyrrolo[3,4-c]pyrrol-2(1H)-yl)phenyl)amino)pyrimidin-4-yl)amino)isoindolin-1-one] | > 1000 nM | 0.1 to 10 nM | 11 to 100 nM
11 | COc1c(Nc2ncc(Cl)c(Nc3cccc4c3C(=O)NC4)n2)ccc(N2C[C@H]3CN(C)C[C@H]3C2)c1F [Compound I-29, 7-((5-chloro-2-((3-fluoro-2-methoxy-4-((3aR,6aS)-5-methylhexahydropyrrolo[3,4-c]pyrrol-2(1H)-yl)phenyl)amino)pyrimidin-4-yl)amino)isoindolin-1-one] | 101 to 1000 nM | 11 to 100 nM | 11 to 100 nM
12 | COc1cc2c(cc1Nc1ncc(C(F)(F)F)c(Nc3cccc4c3C(=O)NC4)n1)CNCC2 [Compound I-30, 7-((2-((6-methoxy-1,2,3,4-tetrahydroisoquinolin-7-yl)amino)-5-(trifluoromethyl)pyrimidin-4-yl)amino)isoindolin-1-one] | 101 to 1000 nM | 0.1 to 10 nM | 0.1 to 10 nM
13 | CC(C)(C)N1CCN(C2CCN(c3ccc(Nc4ncc(C(F)(F)F)c(Nc5cccc6c5C(=O)NC6)n4)c(OC(F)F)c3)CC2)CC1 [Compound I-31, 7-((2-((4-(4-(4-(tert-butyl)piperazin-1-yl)piperidin-1-yl)-2-(difluoromethoxy)phenyl)amino)-5-(trifluoromethyl)pyrimidin-4-yl)amino)isoindolin-1-one] | 101 to 1000 nM | 0.1 to 10 nM | 11 to 100 nM
14 | CC(C)N1CCN(C2CCN(c3ccc(Nc4ncc(C(F)(F)F)c(Nc5cccc6c5C(=O)NC6)n4)c(OC(F)F)c3)CC2)CC1 [Compound I-32, 7-((2-((2-(difluoromethoxy)-4-(4-(4-isopropylpiperazin-1-yl)piperidin-1-yl)phenyl)amino)-5-(trifluoromethyl)pyrimidin-4-yl)amino)isoindolin-1-one] | 101 to 1000 nM | 11 to 100 nM | 11 to 100 nM
15 | COc1c(Nc2ncc(C(F)(F)F)c(Nc3cccc4c3C(=O)NC4)n2)ccc(N2C[C@H]3CN(C)C[C@H]3C2)c1F [Compound I-35, 7-((2-((3-fluoro-2-methoxy-4-((3aR,6aS)-5-methylhexahydropyrrolo[3,4-c]pyrrol-2(1H)-yl)phenyl)amino)-5-(trifluoromethyl)pyrimidin-4-yl)amino)isoindolin-1-one] | 101 to 1000 nM | 11 to 100 nM | 11 to 100 nM
16 | CN1CCN(c2ccc(Nc3ncc(C(F)(F)F)c(Nc4cccc5c4C(=O)NC5)n3)c(Cl)c2F)CC1 [Compound I-36, 7-((2-((2-chloro-3-fluoro-4-(4-methylpiperazin-1-yl)phenyl)amino)-5-(trifluoromethyl)pyrimidin-4-yl)amino)isoindolin-1-one] | 11 to 100 nM | 11 to 100 nM | 0.1 to 10 nM
17 | COc1c(Nc2ncc(C(F)(F)F)c(Nc3cccc4c3C(=O)NC4)n2)ccc(N2CCC(N3CCCC3)CC2)c1F [Compound I-37, 7-((2-((3-fluoro-2-methoxy-4-(4-(pyrrolidin-1-yl)piperidin-1-yl)phenyl)amino)-5-(trifluoromethyl)pyrimidin-4-yl)amino)isoindolin-1-one] | 11 to 100 nM | 0.1 to 10 nM | 11 to 100 nM
